The target of series [1] is T1, 5-hydroxytryptamine receptor 1A (Homo sapiens, UniProt P08908).
T1 sequence (P08908 whole entry): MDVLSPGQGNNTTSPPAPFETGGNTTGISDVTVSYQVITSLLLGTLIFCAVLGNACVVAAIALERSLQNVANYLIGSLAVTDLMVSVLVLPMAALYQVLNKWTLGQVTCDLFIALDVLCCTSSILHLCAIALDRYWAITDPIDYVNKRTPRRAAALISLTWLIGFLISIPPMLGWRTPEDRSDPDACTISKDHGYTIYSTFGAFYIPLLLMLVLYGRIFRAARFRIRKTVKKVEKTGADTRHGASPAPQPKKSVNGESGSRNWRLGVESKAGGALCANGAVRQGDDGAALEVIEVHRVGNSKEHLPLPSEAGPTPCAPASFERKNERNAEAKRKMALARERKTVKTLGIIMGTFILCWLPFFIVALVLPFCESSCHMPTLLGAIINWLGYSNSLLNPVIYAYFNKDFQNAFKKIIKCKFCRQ
In words: Displacement of [3H]-[…] from human 5-HT1A receptor expressed in CHO-K1 cells membrane by scintillation counter analysis. The class given is cell membranes.

The target of series [2] is T2, cAMP and cAMP-inhibited cGMP 3',5'-cyclic phosphodiesterase 10A (Homo sapiens, UniProt Q9Y233). In words: Inhibition of PDE10A (unknown origin) at 10 uM preincubated for 20 mins followed by substrate addition and measured after 1 hr by PEDlight AMP detection reagent based luminescence assay relative to control. As to conditions: time 80.0 min.
Series [3] has as its target 5-hydroxytryptamine receptor 7 (Homo sapiens, UniProt P34969). Nature of the series: Displacement of [3H]-5-CT from human 5-HT7 receptor expressed in CHO-K1 cells membrane by scintillation counter analysis. The class given is cell membranes. Background: Displacement assays read how much labelled ligand stays bound in the presence of the test substance.
Series [4] addresses T2, cAMP and cAMP-inhibited cGMP 3',5'-cyclic phosphodiesterase 10A. Nature of the series: Inhibition of PDE10A (unknown origin) preincubated for 20 mins followed by substrate addition and measured after 1 hr by PEDlight AMP detection reagent based luminescence assay.
Series [5] relates to Mus musculus. Nature of the series: Anxiolytic-like activity in Swiss albino mouse at 2.5 mg/kg, ip by four plate test. In kind it is functional, organism-based.
For series [6], the system named is Mus musculus. Nature of the series: Antidepressant activity in Swiss albino mouse assessed as reduction in immobility time at 5 mg/kg, ip measured for last 4 mins of 6 mins test by forced swim test. The class given is functional, organism-based.
The subject of series [7] is Rattus norvegicus. Nature of the series: Pro-cognitive activity in MK-801-induced memory impaired Wistar rat assessed as recognition of novel location by measuring discrimination index at 1 mg/kg, ip preincubated for 30 mins followed by MK-801 addition for 30 mins prior to T1 phase by novel object location test. The class given is functional, organism-based. As to conditions: time 60.0 min.

The test system of series [8] is Rattus norvegicus. In words: Pro-cognitive activity in MK-801-induced memory impaired Wistar rat assessed as recognition of novel location by measuring discrimination index at 0.3 to 3 mg/kg, ip preincubated for 30 mins followed by MK-801 addition for 30 mins prior to T1 phase by novel object location test. In kind it is functional, organism-based. As to conditions: dose 0.3-3 mg/kg, time 60.0 min.

Series [9] relates to Mus musculus. Nature of the series: Antidepressant activity in Swiss albino mouse assessed as reduction in immobility time at 2.5 mg/kg, ip measured for last 4 mins of 6 mins test by forced swim test. In kind it is functional. On the set-up: scale not given: the % may be the effect or the level left. As to conditions: 0.1 h.
The subject of series [10] is Mus musculus. In words: Anxiolytic-like activity in Swiss albino mouse at 1.25 to 2.5 mg/kg, ip by four plate test. In kind it is functional, organism-based. As to conditions: dose 1.25-2.5 mg/kg.
A short description of series [11]: Aqueous solubility of compound in PBS buffer at pH 7.4 by UV absorbance based analysis. The class given is physicochemical.
Series [12] in a line: Permeability of the compound across apical to basolateral side in human Caco-2 cells at pH 7.4. In kind it is ADME, cell-based. As to conditions: Caco-2, pH 7.4, read-out: permeability. In general terms: Passage across Caco-2 layers is used to estimate intestinal permeability.
Series [13] is described as follows: Permeability of the compound across apical to basolateral side in human Caco-2 cells at pH 6.5. In kind it is ADME, cell-based. As to conditions: Caco-2, pH 6.5, read-out: permeability.

As usually defined, the Ki is a dissociation constant, usually derived from enzyme kinetics or from competition with a known ligand. As usually defined, the inhibition is the share of the control response that was lost under treatment. Broadly, the IC50 is the midpoint of a concentration-inhibition curve. For orientation: solubility means the concentration that dissolves in the medium under given conditions.

The structures appear in SMILES notation. Values after ≈ are worked out from the molar mass of the structure shown. Active and inactive are the calls of the source. No cut-off for these calls is given here.

In the case of `COc1cc2ncnc(N3CCC(CN4CCN(c5ccc(O)cc5)CC4)C3)c2cc1OC` (stereo not drawn), the Ki is 468 nM in [1] and above 1000 nM in series [3]. Further, in series [2], the inhibition is 18%.

On to `COc1cc2ncnc(N3CCC(CN4CCN(c5cccc(Cl)c5)CC4)C3)c2cc1OC` (stereo not drawn), for which the Ki in series [1] is 30.2 nM; in [3], 372 nM. The molecule further gave an inhibition in series [2] of 4%.

Take `O=c1[nH]c2cccc(N3CCN(Cc4ccc5ccccc5n4)CC3)c2[nH]1`: the Ki was 245 nM in series [1] and 417 nM in series [3]. Besides, the inhibition in series [2] was 17%.

With `COc1cc2ncnc(N3CCC(CN4CCN(c5ncccn5)CC4)C3)c2cc1OC` (stereo not drawn), the Ki is 251 nM in series [1] and above 1000 nM in series [3]. This molecule yielded an inhibition in [2] of 11%.

In the case of `c1ccc2nc(CN3CCN(c4cccc5cn[nH]c45)CC3)ccc2c1`, the inhibition constant (Ki) in series [1] and in series [3] was above 1000 nM each time.

As to `COc1cc2ncnc(N3CCC(CN4CCc5ccccc5C4)C3)c2cc1OC` (stereo not drawn), the figures for the Ki in series [1] and in series [3] were above 1000 nM and 603 nM, respectively. In series [2], this molecule yielded an inhibition of 40%. Inhibition in series [4] was half-maximal at 105000 nM (IC50).

The molecule `CSc1ccc2c(c1)CC(N1CCN(C)CC1)c1ccccc1S2` (stereo not drawn) showed an inhibition constant Ki in series [3] of 1.12 nM.

As to `COc1cc2ncnc(N3CCN(Cc4cnc5ccccc5n4)CC3)c2cc1OC`, the Ki in [1] and in series [3] was above 1000 nM each time. Besides, in series [2], the inhibition was determined as 29%. In series [4], this molecule had an IC50 of 170000 nM.

For `COc1cc2ncnc(N3CCC(CN4CCN(c5cccc(Cl)c5Cl)CC4)C3)c2cc1OC` (stereo not drawn), the Ki in series [1] was 10.7 nM; in [3], 347 nM. For the same molecule, in series [2], the inhibition was determined as 6%.

As to `COc1cc2ncnc(N3CCC(CN4CCN(c5ccccn5)CC4)C3)c2cc1OC` (stereo not drawn), the Ki in series [1] is 8.13 nM; in series [3], 282 nM. In [2], this molecule registered an inhibition of 11%.

As to `COc1cc2ncnc(N3CCC(CN4CCN(c5ccccc5)CC4)C3)c2cc1OC` (stereo not drawn), the inhibitory constant (Ki) is 32.4 nM in series [1] and 251 nM in [3]. Moreover, the result in [5], in [6] and in [7] was Active. The same molecule yielded an inhibition in series [2] of 3%.

Take `COc1cc2ncnc(N3CCN(Cc4nc5ccccc5[nH]4)CC3)c2cc1OC`: the Ki in series [1] and in [3] was above 1000 nM in each case. The inhibition in series [2] was found to be 3%.

In [3], `COc1cc2ncnc(N3CCC(CN4CCN(c5ccccc5O)CC4)C3)c2cc1OC` (stereo not drawn) had a Ki of 661 nM. The same molecule gave a concentration for half-maximal inhibition (IC50) in [4] of 6030 nM.

For `COc1cc2ncnc(N3CC[C@@H](Oc4cnc5ccccc5n4)C3)c2cc1OC`, the result in series [8] and in series [10] was Active. Besides, the Activity in series [9] is recorded as 30%.

Consider `c1cc(N2CCN(c3cccc4cn[nH]c34)CC2)c2ncncc2c1`, for which the Ki in [1] and in [3] was above 1000 nM throughout. In series [2], this molecule came in with an inhibition of 3%.

`COc1cc2ncnc(N3CCC(CN4CCN(c5cccc(C(F)(F)F)c5)CC4)C3)c2cc1OC` (stereo not drawn): the Ki is 20.9 nM in series [1] and 229 nM in [3]. In addition, the result in series [5] was Active. Moreover, the inhibition in [2] stood at 3%.

Regarding `c1cc(N2CCN(Cc3nc4ccccc4[nH]3)CC2)c2[nH]ncc2c1`, the inhibitory constant (Ki) in series [1] and in series [3] was above 1000 nM throughout.

With `c1cc(N2CCN(Cc3cnc4ccccc4n3)CC2)c2[nH]ncc2c1`, the inhibitory constant (Ki) in [1] was 87.1 nM; in series [3] it was above 1000 nM.

Turning to `COc1cc2ncnc(N3CCC(CN4CCN(c5ccc(Cl)c(Cl)c5)CC4)C3)c2cc1OC` (stereo not drawn), the Ki in [1] is 245 nM; in series [3] it was 355 nM. For the same molecule, the inhibition in [2] is 2%.

On to `O=c1[nH]c2cccc(N3CCN(Cc4cnc5ccccc5n4)CC3)c2[nH]1`, for which the Ki in series [1] was 83.2 nM; in [3] it was above 1000 nM. In series [2], this molecule yielded an inhibition of 9%.

In [11], `COCCc1ccc(OCC(O)CNC(C)C)cc1` (stereo not drawn) [METOPROLOL] came in with a solubility of 200 µM (≈ 53.5 µg/mL).

Turning to `O=c1[nH]c2cccc(N3CCN(Cc4nc5ccccc5[nH]4)CC3)c2[nH]1`, the inhibitory constant (Ki) in [1] and in series [3] was above 1000 nM in each case. The molecule further displayed an inhibition in [2] of 23%. In series [4], inhibition was half-maximal at 4070 nM (IC50).

Turning to `CNC(=C[N+](=O)[O-])NCCSCc1ccc(CN(C)C)o1` [RANITIDINE], the Papp A→B in series [12] was 0.9 ×10⁻⁶ cm/s; in series [13], 0.3 ×10⁻⁶ cm/s.

Turning to `COc1cc2ncnc(N3CCC(CN4CCN(c5ccccc5OC)CC4)C3)c2cc1OC` (stereo not drawn), the Ki is 1.62 nM in series [1] and 56.2 nM in series [3]. This molecule came in with an inhibition in [2] of 16%.

For `COc1cc2ncnc(N3CCN(Cc4ccc5ccccc5n4)CC3)c2cc1OC`, the inhibition constant (Ki) in series [1] and in series [3] was above 1000 nM each time. The molecule further gave an inhibition in [2] of 8%.
